Drawing on PubChem BioAssay (NCI), this text covers TGI and GI50 for 15 molecules.

“And” between values parts separate entries of the source, which are not always exact repeats. Equal values may be shown once.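 All cell lines were grown in 96-well plates and treated with compound for 48 hours. GI50 marks 50% less growth. Definition used: TGI = concentration required for complete inhibition of growth.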 Where only a bound is given, the exact number is not on record here.

Among the test systems are SNB-75 CNS; HCT-116 colon; HT29 colon; UO-31 renal; U251 CNS; HS 578T breast; LOX IMVI melanoma; MOLT-4 leukemia; IGROV1 ovarian; NCI-H522 lung.
Common to all, as to assay: inhibition of tumour cell growth, NCI panel, 48 h

As for `N#Cc1c(N)n(-c2cccc(C(=O)O)c2)c(=O)c2cc([N+](=O)[O-])ccc12`, the TGI in the assay with SNB-75 CNS, in the assay on HCT-116 colon, with HT29 colon, in the assay on UO-31 renal, in the assay on U251 CNS and in the assay on HS 578T breast was above 100 µM in each case. The molecule also showed a TGI in the assay with LOX IMVI melanoma above 100 µM.
Take `N#CCCN(C(=O)Nc1ccccc1)[C@H]1CCCC[C@@H]1N(C(=O)Nc1ccccc1)c1ccccc1`: the TGI in the assay with SNB-75 CNS, in the assay on MOLT-4 leukemia, in the assay with IGROV1 ovarian, in the assay with NCI-H522 lung, in the assay on HCT-116 colon and with HT29 colon was above 100 µM in each case. Further, the TGI in the assay on UO-31 renal, in the assay on U251 CNS and with LOX IMVI melanoma was above 100 µM each time.
For the molecule `O=C1CCCC1CN1CCCC1` (stereo not given), the TGI in the assay on SNB-75 CNS was 31 µM; with MOLT-4 leukemia, 1.07 µM; in the assay on IGROV1 ovarian it was 26.6 µM; with HCT-116 colon it was 11.7 µM; in the assay on HT29 colon, above 59.7 µM; with UO-31 renal, 17.6 µM. The TGI in the assay on U251 CNS is above 56.8 µM; in the assay on HS 578T breast, 55.7 µM; with LOX IMVI melanoma, 24.4 µM.
Consider `CC(OC(C)(C)C)[C@H](NC(=O)OCC(Cl)(Cl)Cl)C(=O)O` (stereo not given in full), for which the TGI in the assay on SNB-75 CNS, with MOLT-4 leukemia, in the assay on IGROV1 ovarian, in the assay on NCI-H522 lung, with HCT-116 colon and with HT29 colon was above 100 µM each time. For the same molecule, the TGI in the assay on UO-31 renal and with U251 CNS was above 100 µM each time.
For the molecule `C=C(C)[C@@H]1CC[C@]2(C(=O)NC3CCCCC3)CC[C@]3(C)[C@H](CC[C@@H]4[C@@]5(C)CCCNC(C)(C)[C@@H]5CC[C@]43C)[C@@H]12`, in the assay with SNB-75 CNS, the GI50 was 1.48 µM and the TGI is 3.05 µM. In the assay with UO-31 renal, the GI50 was 1.42 µM and the TGI was 2.73 µM.
As for `CSc1ncnc2c1ncn2CCC(=O)OC(C)(C)C`, the TGI in the assay on SNB-75 CNS, in the assay on MOLT-4 leukemia, in the assay with IGROV1 ovarian, in the assay on NCI-H522 lung, with HCT-116 colon and with HT29 colon was above 100 µM throughout. Besides, the TGI in the assay with UO-31 renal and in the assay on LOX IMVI melanoma was above 100 µM throughout.
As to `CN(C)CCC(=O)c1ccccc1`, the TGI is above 71 µM in the assay on SNB-75 CNS; 59.9 µM in the assay with MOLT-4 leukemia; above 71 µM with IGROV1 ovarian; 1.06 µM in the assay with NCI-H522 lung; 55.4 µM in the assay on HCT-116 colon; above 67.3 µM with HT29 colon. The TGI in the assay on UO-31 renal is above 68.8 µM; in the assay on U251 CNS, above 69.4 µM; in the assay on LOX IMVI melanoma it was 57.8 µM.
`COC(=O)c1cc2ccc(N)nc2[nH]c1=O`: the TGI with SNB-75 CNS, in the assay on IGROV1 ovarian, in the assay with NCI-H522 lung, in the assay on HCT-116 colon, in the assay on UO-31 renal and in the assay with U251 CNS was above 100 µM in each case. The molecule further had a TGI with LOX IMVI melanoma above 100 µM.
As to `CC(O)C1(CNc2cc(Cl)nc(N)n2)CCC1` (stereo not given), the TGI with MOLT-4 leukemia, in the assay on IGROV1 ovarian, in the assay on NCI-H522 lung, in the assay on HCT-116 colon, with HT29 colon and in the assay on UO-31 renal was above 100 µM in each case. Moreover, the TGI in the assay on U251 CNS, in the assay with HS 578T breast and in the assay on LOX IMVI melanoma was above 100 µM in each case.
As to `O=C(Cn1c[n+](CC(=O)c2ccc(-c3ccccc3)cc2)c2ccccc21)Nc1cccc2cccnc12`, the GI50 with SNB-75 CNS is 1.65 µM; in the assay with NCI-H522 lung, 1.53 µM; in the assay with UO-31 renal, 14.2 µM; in the assay on HS 578T breast it was 1.7 µM; in the assay on LOX IMVI melanoma, 1.54 µM. The TGI in the assay on SNB-75 CNS amounted to 4.03 µM; in the assay on NCI-H522 lung, 3.25 µM; in the assay on UO-31 renal it was 33.3 µM; in the assay on HS 578T breast, 4.3 µM; with LOX IMVI melanoma it was 3.03 µM.
On to `CC12CC(c3ccccc3O1)C(C(=O)Nc1ccc(Cl)cc1Cl)C(=O)N2` (stereo not given), for which the TGI with MOLT-4 leukemia was 54.5 µM; with IGROV1 ovarian, 50.9 µM; in the assay with NCI-H522 lung it was above 100 µM; in the assay on HCT-116 colon it was above 100 µM; with HT29 colon, above 100 µM; in the assay on UO-31 renal it was 37.7 µM. For the same molecule, the TGI in the assay on U251 CNS was 48.2 µM; in the assay on HS 578T breast it was 47.7 µM; in the assay on LOX IMVI melanoma it was 49.5 µM.
As for `CCOC(=O)CN1C(=O)c2ccc(NC(=O)C(=O)O)cc2S1(=O)=O`, the TGI in the assay with MOLT-4 leukemia, in the assay on IGROV1 ovarian, in the assay on NCI-H522 lung, in the assay on HCT-116 colon, in the assay with HT29 colon and with UO-31 renal was above 100 µM in each case. Moreover, the TGI with U251 CNS, with HS 578T breast and in the assay with LOX IMVI melanoma was above 100 µM throughout.
As to `NC(=O)C(C(N)=O)=C(O)C(=O)/C=C(\O)c1ccccc1`, the TGI in the assay with SNB-75 CNS was above 100 µM; in the assay on IGROV1 ovarian it was above 100 µM; with NCI-H522 lung, 36.2 µM; in the assay with HCT-116 colon, above 100 µM; with HT29 colon, above 100 µM; in the assay on UO-31 renal, above 100 µM. In addition, the TGI in the assay with U251 CNS, with HS 578T breast and in the assay with LOX IMVI melanoma was above 100 µM in each case.
`O=c1cc(-c2cccc3ccccc23)[nH]c2ncccc12`: the GI50 with MOLT-4 leukemia is 0.0449 µM; in the assay with IGROV1 ovarian it was 0.0417 µM; with NCI-H522 lung it was 0.0158 µM; in the assay with UO-31 renal, 0.0741 µM; with U251 CNS, 0.0103 µM; in the assay with HS 578T breast, 0.0186 µM. Moreover, the TGI in the assay on MOLT-4 leukemia was above 100 µM; in the assay on IGROV1 ovarian it was above 100 µM; in the assay on NCI-H522 lung, 0.0698 µM and 0.0767 µM; in the assay on HCT-116 colon it was 21.3 µM; in the assay on HT29 colon, 0.0608 µM; in the assay with UO-31 renal, above 100 µM. Further, the TGI with U251 CNS and in the assay with HS 578T breast was above 100 µM throughout.
`O=c1c(/C=C/c2c(O)ccc3ccccc23)nnc2sc(-c3cccc(Br)c3)nn12`: the TGI was 40.3 µM in the assay with MOLT-4 leukemia; 15.8 µM with IGROV1 ovarian; 42.3 µM in the assay on NCI-H522 lung; above 100 µM with HCT-116 colon; 82.1 µM in the assay with HT29 colon; 69.6 µM with UO-31 renal. Moreover, the results for the TGI in the assay on U251 CNS, with HS 578T breast and with LOX IMVI melanoma were above 100 µM, above 100 µM and 26.9 µM, respectively.
